Test results reported in US20180273528A1 (LES LABORATOIRES SERVIER, priority 2015, published 2018).

What was measured:
[1] = target: T1, His-TEV-DYRK1A Kinase domain (aa127-485) (Homo sapiens, UniProt Q13627); experiment: Kinase ADP assay (ADP Hunter), DYRK1A kinase domain; format: biochemical; details: 20 μM ATP
T1 construct: His-TEV-DYRK1A Kinase domain (aa127-485); His tag (N); TEV protease cleavage site (N)
Outline: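 Readout is ADP Hunter fluorescence at 590 nm, developed 20 min at 30 °C after the kinase step. That step ran 10 min at 30 °C in Hepes pH 7.4 (10 mM MgCl2, 1 mM EGTA, 0.02% Tween20) containing 20 μM ATP, 40 μM peptide and 20 nM enzyme plus compound.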

DYRK1B = target: T2, DYRK1B (Homo sapiens, UniProt Q9Y463); experiment: Kinase TR-FRET assay, DYRK1B; format: biochemical; details: full-length human kinase, 10 μM ATP
T2 construct: full-length human kinases from Carna Biosciences; purchased Carna Biosciences 04-131
Outline: (§1)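 Compounds tested at 0.1 nM to 30 μM in reaction buffer; reaction stopped with 10 mM EDTA. Phosphorylated MBP detected with 1 nM Europium-labelled anti-phospho-Thr232 antibody by TR-FRET.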

CLK1 = target: T3, CLK1 (Homo sapiens, UniProt P49759); experiment: Kinase TR-FRET assay, CLK1; format: biochemical; details: full-length human kinase, 10 μM ATP
T3 construct: full-length human kinases from Carna Biosciences; purchased Carna Biosciences 04-126
Description: Inhibition of the enzymatic activity of human kinases was evaluated in a Time-Resolved Fluorescence Resonance Energy Transfer (TR-FRET) assay in 384-well reaction plates. […] Test compounds of the invention were added in reaction buffer at a range of concentrations from 0.1 nM to 30 μM. Following addition of EDTA (Sigma E7889, 10 mM) to stop the reaction, Europium-labelled mouse monoclonal antibody recognizing phospho-Thr232 in MBP (Perkin Elmer TRF0201, 1 nM) was added.

CDK9 = target: T4, CDK9 (Homo sapiens, UniProt P50750); experiment: Kinase TR-FRET assay, CDK9; format: biochemical; details: full-length human kinase, 10 μM ATP
T4 construct: full-length human kinases from Carna Biosciences; purchased Carna Biosciences 04-110
Outline: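 Full-length human CDK9 (0.9 ng/μl) incubated 100 min at room temperature with 10 μM ATP, 100 nM ULight-MBP peptide and compound (0.1 nM–30 μM) in 50 mM HEPES pH 7.4, 1 mM EGTA, 10 mM MgCl2, 2 mM DTT, 0.01% Tween20. Stopped with 10 mM EDTA, then 1 nM Eu-anti-phospho-Thr232 MBP antibody added for 1 h. TR-FRET read at 665/620 nm with 340 nm excitation.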

DYRK1A [2] = target: T5, DYRK1A (Homo sapiens, UniProt Q13627); experiment: Kinase TR-FRET assay, DYRK1A; format: biochemical; parameters: full-length, wild-type human DYRK1A (NM_001396) with an HA tag; expressed in transfected cells; host or cells: human U2-OS osteosarcoma cells, transient transfection of a pcDNA3.1 plasmid; details: full-length human kinase, 10 μM ATP
Outline: as §1

DYRK1A [3] = target: T5, DYRK1A; experiment: Cellular DYRK1 autophosphorylation assay in U2-OS cells; format: cell-based; parameters: full-length, wild-type human DYRK1A (NM_001396) with an HA tag; expressed in transfected cells; host or cells: human U2-OS osteosarcoma cells, transient transfection of a pcDNA3.1 plasmid; details: U2-OS cells transfected with HA-tagged human DYRK1A, 5 hours exposure; read-out: IC50 (μM) P-Ser520-Dyrk1A -Cell assay
Outline: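 IC50 derived from dose-response curves of phospho-Ser520-DYRK1A (blots normalised to total DYRK1A), quantified by either immunoblotting with chemiluminescence or Mesoscale electrochemiluminescent ELISA. Compounds applied to U2-OS cells across several concentrations for 5 hours.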

T4 sequence (P50750 whole entry): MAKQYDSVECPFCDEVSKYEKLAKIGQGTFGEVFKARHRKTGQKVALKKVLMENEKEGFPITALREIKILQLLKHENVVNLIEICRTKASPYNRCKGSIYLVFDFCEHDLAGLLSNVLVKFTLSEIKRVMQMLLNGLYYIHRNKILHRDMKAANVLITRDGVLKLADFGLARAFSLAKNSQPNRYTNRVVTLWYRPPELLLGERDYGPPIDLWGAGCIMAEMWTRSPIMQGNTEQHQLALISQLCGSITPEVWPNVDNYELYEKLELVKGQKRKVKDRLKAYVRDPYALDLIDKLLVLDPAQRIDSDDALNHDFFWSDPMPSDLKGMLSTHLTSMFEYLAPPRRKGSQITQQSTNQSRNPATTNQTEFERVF
T4 sequence (O60563 whole entry partner): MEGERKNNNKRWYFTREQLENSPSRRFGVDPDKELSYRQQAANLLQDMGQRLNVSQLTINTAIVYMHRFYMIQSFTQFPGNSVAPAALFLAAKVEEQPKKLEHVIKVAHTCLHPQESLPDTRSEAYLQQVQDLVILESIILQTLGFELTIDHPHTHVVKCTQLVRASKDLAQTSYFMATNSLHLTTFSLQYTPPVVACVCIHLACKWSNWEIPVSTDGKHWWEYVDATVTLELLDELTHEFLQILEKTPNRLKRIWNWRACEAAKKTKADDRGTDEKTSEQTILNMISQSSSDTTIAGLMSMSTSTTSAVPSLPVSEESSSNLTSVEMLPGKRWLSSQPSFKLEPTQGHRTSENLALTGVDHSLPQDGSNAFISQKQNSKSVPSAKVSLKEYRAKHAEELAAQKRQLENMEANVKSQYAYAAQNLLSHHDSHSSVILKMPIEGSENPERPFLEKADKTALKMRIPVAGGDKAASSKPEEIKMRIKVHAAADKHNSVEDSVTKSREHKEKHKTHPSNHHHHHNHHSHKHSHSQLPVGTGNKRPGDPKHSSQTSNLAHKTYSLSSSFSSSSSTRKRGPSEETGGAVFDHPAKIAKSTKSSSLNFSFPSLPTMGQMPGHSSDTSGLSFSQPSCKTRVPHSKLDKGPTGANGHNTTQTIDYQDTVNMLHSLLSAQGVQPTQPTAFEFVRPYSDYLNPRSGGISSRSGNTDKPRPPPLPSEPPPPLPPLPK
T2 sequence (Q9Y463 whole entry): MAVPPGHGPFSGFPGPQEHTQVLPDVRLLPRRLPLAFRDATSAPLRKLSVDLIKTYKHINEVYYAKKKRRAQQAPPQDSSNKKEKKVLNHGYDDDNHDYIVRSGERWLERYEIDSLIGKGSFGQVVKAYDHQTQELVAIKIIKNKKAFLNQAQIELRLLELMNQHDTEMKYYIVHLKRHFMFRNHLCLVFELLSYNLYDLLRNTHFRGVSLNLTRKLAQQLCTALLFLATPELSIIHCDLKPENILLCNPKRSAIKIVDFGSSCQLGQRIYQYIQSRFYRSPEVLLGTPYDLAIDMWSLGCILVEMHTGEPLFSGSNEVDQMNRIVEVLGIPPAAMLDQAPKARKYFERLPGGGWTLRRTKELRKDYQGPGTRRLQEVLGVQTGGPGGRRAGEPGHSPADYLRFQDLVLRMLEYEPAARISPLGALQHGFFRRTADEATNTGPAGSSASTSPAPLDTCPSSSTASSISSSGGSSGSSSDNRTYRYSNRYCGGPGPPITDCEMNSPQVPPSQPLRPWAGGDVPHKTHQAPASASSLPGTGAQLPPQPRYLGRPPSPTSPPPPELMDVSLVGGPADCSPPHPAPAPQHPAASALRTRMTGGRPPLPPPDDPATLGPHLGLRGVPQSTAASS
T3 sequence (P49759 1-526 isoform P49759-3): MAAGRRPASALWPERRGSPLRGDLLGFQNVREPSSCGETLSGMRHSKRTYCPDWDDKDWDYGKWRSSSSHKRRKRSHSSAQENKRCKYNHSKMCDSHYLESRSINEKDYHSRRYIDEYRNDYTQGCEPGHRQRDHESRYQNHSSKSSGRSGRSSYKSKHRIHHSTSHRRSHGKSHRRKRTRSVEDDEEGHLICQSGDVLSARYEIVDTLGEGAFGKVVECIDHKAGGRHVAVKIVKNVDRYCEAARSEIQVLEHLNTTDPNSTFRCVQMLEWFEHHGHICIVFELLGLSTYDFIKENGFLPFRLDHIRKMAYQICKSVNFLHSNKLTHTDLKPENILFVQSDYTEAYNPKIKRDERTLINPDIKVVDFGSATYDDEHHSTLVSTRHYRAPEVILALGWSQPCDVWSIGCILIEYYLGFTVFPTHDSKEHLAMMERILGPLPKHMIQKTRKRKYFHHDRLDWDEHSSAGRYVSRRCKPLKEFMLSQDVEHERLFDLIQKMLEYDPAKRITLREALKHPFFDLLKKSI

IC50 [1] | IC50 (DYRK1B) | IC50 (CLK1) | IC50 (CDK9) | IC50 (DYRK1A [2]) | IC50 (DYRK1A [3]) | Compound
0.015 µM | 0.014 µM | 0.09 µM | > 10 µM | 0.01 µM | 0.184 µM | COc1cc(Cn2c(C)nc3ccc(-c4cc(N)nc(N)c4)nc32)ccn1 [Example 72, 4-{3-[(2-methoxypyridin-4-yl)methyl]-2-methyl-3H-imidazo[4,5-b]pyridin-5-yl}pyridine-2,6-diamine]
0.009 µM | 0.008 µM | 0.019 µM | 4.66 µM | 0.004 µM | 0.065 µM | Cc1nc2ccc(-c3cc(N)nc(N)c3)nc2n1CCc1ccc2c(c1)OCO2 [Example 73, 4-(3-[2-(1,3-benzodioxol-5-yl)ethyl]-2-methyl-3H-imidazo[4,5-b]pyridin-5-yl)pyridine-2,6-diamine]
0.012 µM | 0.006 µM | 0.019 µM | 0.843 µM | 0.003 µM | 0.035 µM | Cc1nc2ccc(-c3cc(N)nc(N)c3)nc2n1CCC(C)C [Example 75, 4-[2-methyl-3-(3-methylbutyl)-3H-imidazo[4,5-b]pyridin-5-yl]pyridine-2,6-diamine]
0.013 µM | 0.008 µM | 0.016 µM | 2.92 µM | 0.004 µM | 0.062 µM | Cc1nc2ccc(-c3cc(N)nc(N)c3)nc2n1CCc1cccc(C(F)(F)F)c1 [Example 91, 4-(2-methyl-3-{2-[3-(trifluoromethyl)phenyl]ethyl}-3H-imidazo[4,5-b]pyridin-5-yl)pyridine-2,6-diamine]
0.011 µM | 0.01 µM | 0.02 µM | 3.09 µM | 0.004 µM | 0.075 µM | Cc1nc2ccc(-c3cc(N)nc(N)c3)nc2n1CCc1ccc(F)cc1 [Example 96, 4-{3-[2-(4-fluorophenyl)ethyl]-2-methyl-3H-imidazo[4,5-b]pyridin-5-yl}pyridine-2,6-diamine]
0.013 µM | 0.006 µM | 0.028 µM | 5.69 µM | 0.003 µM | 0.034 µM | Cc1nc2ccc(-c3cc(N)nc(N)c3)nc2n1CC(F)F [Example 115, 4-[3-(2,2-difluoroethyl)-2-methyl-3H-imidazo[4,5-b]pyridin-5-yl]pyridine-2,6-diamine]
0.007 µM | 0.006 µM | 0.016 µM | 1.24 µM | 0.002 µM | 0.1 µM | CCCCn1c(C)nc2ccc(-c3cc(N)nc(N)c3)nc21 [Example 148, 4-(3-butyl-2-methyl-3H-imidazo[4,5-b]pyridin-5-yl)pyridine-2,6-diamine]
0.01 µM | 0.003 µM | 0.016 µM | 1.02 µM | 0.001 µM | 0.035 µM | Cc1nc2ccc(-c3cc(N)nc(N)c3)nc2n1CCOc1ccccc1 [Example 153, 4-[2-methyl-3-(2-phenoxyethyl)-3H-imidazo[4,5-b]pyridin-5-yl]pyridine-2,6-diamine]
0.012 µM | 0.007 µM | 0.016 µM | 1.1 µM | 0.003 µM | 0.053 µM | Cc1nc2ccc(-c3cc(N)nc(N)c3)nc2n1CCOc1cccc(F)c1 [Example 199, 4-{3-[2-(3-fluorophenoxy)ethyl]-2-methyl-3H-imidazo[4,5-b]pyridin-5-yl}pyridine-2,6-diamine]
0.018 µM | 0.01 µM | 0.02 µM | 1.52 µM | 0.005 µM | 0.069 µM | Cc1nc2ccc(-c3cc(N)nc(N)c3)nc2n1CCOc1cccc(Cl)c1 [Example 200]

Continued, compound first:

Compound | IC50 [1] | IC50 (DYRK1B) | IC50 (CLK1) | IC50 (CDK9) | IC50 (DYRK1A [2]) | IC50 (DYRK1A [3])
Cc1nc2ccc(-c3cc(N)nc(N)c3)nc2n1C1CCOCC1 [Example 49, 4-[2-methyl-3-(tetrahydro-2H-pyran-4-yl)-3H-imidazo[4,5-b]pyridin-5-yl]pyridine-2,6-diamine] | 0.011 µM | 0.017 µM | 0.017 µM | 0.979 µM | 0.003 µM | 0.13 µM
C=CCn1c(C)nc2ccc(-c3cc(N)nc(N)c3)nc21 [Example 51, 4-[2-methyl-3-(prop-2-en-1-yl)-3H-imidazo[4,5-b]pyridin-5-yl]pyridine-2,6-diamine] | 0.007 µM | 0.001 µM | 0.029 µM | 4.37 µM | 0.006 µM | 0.038 µM
CCCCCn1c(C)nc2ccc(-c3cc(N)nc(N)c3)nc21 [Example 65, 4-(2-methyl-3-pentyl-3H-imidazo[4,5-b]pyridin-5-yl)pyridine-2,6-diamine] | 0.006 µM | 0.005 µM | 0.018 µM | > 10 µM | 0.001 µM | 0.022 µM
Cc1nc2ccc(-c3cc(N)nc(N)c3)nc2n1CC1CC1(Cl)Cl (stereo not drawn) [Example 74, 4-{3-[(2,2-dichlorocyclopropyl)methyl]-2-methyl-3H-imidazo[4,5-b]pyridin-5-yl}pyridine-2,6-diamine] | 0.014 µM | 0.01 µM | 0.021 µM | 0.476 µM | 0.006 µM | 0.092 µM
Cc1nc2ccc(-c3cc(N)nc(N)c3)nc2n1CC1CCCC1 [Example 89, 4-[3-(cyclopentylmethyl)-2-methyl-3H-imidazo[4,5-b]pyridin-5-yl]pyridine-2,6-diamine] | 0.014 µM | 0.009 µM | 0.024 µM | 1.46 µM | 0.004 µM | 0.068 µM
Cc1nc2ccc(-c3cc(N)nc(N)c3)nc2n1CCC1CCCC1 [Example 92, 4-[3-(2-cyclopentylethyl)-2-methyl-3H-imidazo[4,5-b]pyridin-5-yl]pyridine-2,6-diamine] | 0.006 µM | 0.007 µM | 0.017 µM | 0.564 µM | 0.002 µM | 0.058 µM
CCCCCCn1c(C)nc2ccc(-c3cc(N)nc(N)c3)nc21 [Example 94, 4-(3-hexyl-2-methyl-3H-imidazo[4,5-b]pyridin-5-yl)pyridine-2,6-diamine] | 0.005 µM | 0.007 µM | 0.016 µM | 1.08 µM | 0.003 µM | 0.017 µM
COC1CCCCC1CCn1c(C)nc2ccc(-c3cc(N)nc(N)c3)nc21 (stereo not drawn) [Example 95, 4-{3-[2-(2-methoxycyclohexyl)ethyl]-2-methyl-3H-imidazo[4,5-b]pyridin-5-yl}pyridine-2,6-diamine] | 0.012 µM | 0.011 µM | 0.029 µM | 1.8 µM | 0.003 µM | 0.021 µM
CCCCc1nc2ccc(-c3cc(N)nc(N)c3)nc2n1CCCC [Example 144, 4-(2,3-dibutyl-3H-imidazo[4,5-b]pyridin-5-yl)pyridine-2,6-diamine] | 0.016 µM | 0.012 µM | 0.238 µM | > 3 µM | 0.008 µM | 0.128 µM
COCCCCn1c(C)nc2ccc(-c3cc(N)nc(N)c3)nc21 [Example 151, 4-[3-(4-methoxybutyl)-2-methyl-3H-imidazo[4,5-b]pyridin-5-yl]pyridine-2,6-diamine] | 0.013 µM | 0.008 µM | 0.019 µM | 2.87 µM | 0.004 µM | 0.17 µM
CCCCn1c(CC)nc2ccc(-c3cc(N)nc(N)c3)nc21 [Example 157, 4-(3-butyl-2-ethyl-3H-imidazo[4,5-b]pyridin-5-yl)pyridine-2,6-diamine] | 0.021 µM | 0.003 µM | 0.058 µM | > 10 µM | 0.011 µM | 0.153 µM
Cc1nc2ccc(-c3cc(N)nc(N)c3)nc2n1C[C@H](C)Oc1cccc(Br)n1 [Example 180] | 0.013 µM | 0.01 µM | 0.016 µM | 0.467 µM | 0.005 µM | 0.044 µM
